Legend:
Assay type in all cases: functional, cell-based
BaF3 [1] = experiment: Antiproliferative activity against mouse BAF3 cells
BaF3 [2] = experiment: Antiproliferative activity against mouse BAF3 cells expressing Bcr-Abl T315I mutant
BaF3 [3] = experiment: Antiproliferative activity against mouse BAF3 cells expressing wild type Bcr-Abl

Row | SMILES | EC50 (BaF3 [1]) [nM] | EC50 (BaF3 [2]) [nM] | EC50 (BaF3 [3]) [nM]
1 | CCN1CCN(Cc2ccc(NC(=O)c3cccc(C#Cc4cnc5[nH]ccc5c4)c3)cc2C(F)(F)F)CC1 | > 10000 | 220 | 11
2 | CCN1CCN(Cc2ccc(NC(=O)c3ccc(C)c(C#Cc4ccc(C(=O)NC)nc4)c3)cc2C(F)(F)F)CC1 | 3980 | 2580 | 41
3 | CCN1CCN(Cc2ccc(NC(=O)c3ccc(C)c(C#Cc4ccc(NC(=O)C5CC5)nc4)c3)cc2C(F)(F)F)CC1 | 1800 | 13 | < 1
4 | CCN1CCN(Cc2ccc(NC(=O)c3ccc(C)c(C#Cc4coc5ccccc45)c3)cc2C(F)(F)F)CC1 | 6760 | 8370 | 240
5 | Cc1cn(-c2cc(NC(=O)c3cccc(C#Cc4cnc5[nH]ccc5c4)c3)cc(C(F)(F)F)c2)cn1 | 2830 | 300 | 15
6 | CCN1CCN(Cc2ccc(NC(=O)c3ccc(C)c(C#Cc4cnccn4)c3)cc2C(F)(F)F)CC1 | 2490 | 3030 | 6
7 | Cc1cn(-c2cc(NC(=O)c3ccc(C)c(C#Cc4cnc5[nH]ccc5c4)c3)cc(C(F)(F)F)c2)cn1 | > 10000 | 470 | 37
8 | CCN1CCN(Cc2ccc(NC(=O)c3ccc(C)c(C#Cc4ccc(NC(C)=O)nc4)c3)cc2C(F)(F)F)CC1 | 2050 | 10 | < 1

Further lines, results first:

Row | EC50 (BaF3 [1]) [nM] | EC50 (BaF3 [2]) [nM] | EC50 (BaF3 [3]) [nM] | SMILES
9 | 2190 | 990 | < 1 | CCN1CCN(Cc2ccc(NC(=O)c3ccc(C)c(C#Cc4cncnc4)c3)cc2C(F)(F)F)CC1
10 | 860 | 165 | < 1 | CCN1CCN(Cc2ccc(NC(=O)c3ccc(C)c(C#Cc4cnc(N)cn4)c3)cc2C(F)(F)F)CC1
11 | 7860 | 2630 | 70 | CCN1CCN(Cc2ccc(C(=O)Nc3ccc(C)c(C#Cc4cnc5[nH]ccc5c4)c3)cc2C(F)(F)F)CC1
12 | 60 | 14 | < 1 | CCN1CCN(Cc2ccc(NC(=O)c3ccc(C)c(C#Cc4cnc5[nH]cnc5c4)c3)cc2C(F)(F)F)CC1
13 | 1000 | 560 | 26 | CCN1CCN(Cc2ccc(NC(=O)c3ccc(C)c(C#Cc4cnc5[nH]c(C)cc5c4)c3)cc2C(F)(F)F)CC1
14 | 3320 | 5520 | 37 | CCN1CCN(Cc2ccc(NC(=O)c3ccc(C)c(C#Cc4cnc5nccnc5c4)c3)cc2C(F)(F)F)CC1

From ChEMBL document CHEMBL1177794, “Broad spectrum alkynyl inhibitors of T315I Bcr-Abl” (Bioorg Med Chem Lett, 2010)
